# Assay results as given in patent US9308198B2, “Treatment, prevention, and reversal of alcohol-induced brain disease” (priority 2006, dated 2016).
# Like-named read-outs stand apart in the source and are kept apart here.
# What was measured:
# IGF-I receptor = conditions: chronic ethanol feeding; temporal lobe, hypothalamus, and cerebellum
# Text: (§1) Male (˜200 g) Long Evans rats (Charles River Laboratories, Cambridge, Mass.) were fed isocaloric liquid diets (BioServ, Frenchtown, N.J.) in which ethanol comprised 0% or 37% of the caloric content (9.25% v/v) for 6 weeks (Yeon et al., Hepatology 38:703 (2003)). A chow fed control group was also studied. Rats were monitored daily to ensure equivalent food consumption and maintenance of body weight. Upon sacrifice, the brains were harvested and either immersion fixed in Histochoice fixative (Amresco Corp., Solon, Ohio) for paraffin embedding, or sliced fresh to micro-dissect temporal cortex, hypothalamus, and cerebellum. The fresh tissue blocks were snap frozen in a dry ice-methanol bath and stored at −80° C. for mRNA and protein studies.
# (§2) Fresh frozen tissue (˜100 mg) was homogenized in 5 volumes of NP-40 lysis buffer (50 mM Tris-HCl, pH 7.5, 1% NP-40, 150 mM NaCl, 1 mM EDTA, 2 mM EGTA) containing protease inhibitors (1 mM PMSF, 0.1 mM TPCK, 1 μg/ml aprotinin, 1 μg/ml pepstatin A, 0.5 μg/ml leupeptin, 1 mM NaF, 1 mM Na4P2O7). Protein concentrations were determined using the bicinchoninic acid (BCA) assay (Pierce, Rockford, Ill.). Exploratory studies determined the amounts of protein and concentrations of radiolabeled ligand required to achieve 20% specific binding. Insulin receptor binding assays were performed using 100 μg protein. IGF-I binding assays required 25 μg protein per sample, and IGF-II receptor binding assays were optimized using 10 μg protein. Competitive equilibrium binding assays were used to assess growth factor binding in relation to ethanol exposure. For total binding, duplicate individual protein samples were incubated in 100 μl reactions containing binding buffer (100 mM HEPES, pH 8.0, 118 mM NaCl, 1.2 mM MgSO4, 8.8 mM dextrose, 5 mM KCl, 1% bovine serum albumin) and 100 nCi/ml of [^125I] (2000 Ci/mmol; […]) insulin, IGF-I, or IGF-II. To measure non-specific binding, replicate samples were identically prepared but with the addition of 0.1 μM unlabeled (cold) ligand.
# (§3) All reactions were performed in 1.5 ml Eppendorff tubes, and the incubations were performed at 4° C. for 16 hours with gentle platform agitation. Bound radiolabeled tracer was then precipitated by adding 500 μl of 0.15% bovine gamma globulin (prepared in 100 mM Tris-HCl, pH 8.0) followed by 400 μl 37.5% polyethylene glycol 8000 (PEG-8000; prepared in 100 mM Tris-HCl, pH 8.0) to each tube. […] The samples were counted for 1 minute in an LKB CompuGamma CS Gamma counter. Specific binding was calculated by subtracting fmol of non-specific binding, i.e., amount bound in the presence of cold ligand, from the total fmol bound (absence of unlabeled competitive ligand). The results were analyzed and plotted using the GraphPad Prism 4 software (GraphPad Software, Inc., San Diego, Calif.). […]
# IGF-II receptor = conditions: chronic ethanol feeding
# Text: as §1, §2, §3
# insulin receptor = conditions: chronic ethanol feeding; temporal lobe, hypothalamus, and cerebellum
# Text: as §1, §2, §3
smiles,measurement,setting,value
CCO [ethanol],IGF-I receptor binding,IGF-I receptor,significantly reduced
same,IGF-II receptor binding,"IGF-II receptor; cerebella, relative to control rats",significantly lower
same,IGF-II receptor binding,IGF-II receptor; temporal lobe and hypothalamus,relatively preserved
same,insulin receptor binding,insulin receptor,significantly reduced
